20 compounds from patent US4579861A, “Aryloxypropanolamine derivatives, pharmaceutical compositions and adrenegic thereof” (Pierrel S.p.A., priority 1983, dated 1986) can be followed below.

Counter-ions that a name gives are not always drawn. Like-named read-outs stand apart in the source and are kept apart here.

One data set deals with T1, β1 (guinea pig atria) (Cavia porcellus, UniProt H0W3H1).
T1 construct: The atria and the trachea have been suspended respectively in Ringer oxygenated solution; from tissue; host or cells: isolated atria of Hartley albino guinea pigs
Kind of data set: In vitro β-blocking activity, guinea pig atria stimulated with isopropylnoradrenaline (INA). The following applies: INA 10^-8 M, 32° C. It counts as cell-based, guinea pig (Hartley albino). The procedure: (§1) Hartley albino guinea pigs of 450 g average weight were used. The atria and the trachea have been suspended respectively in Ringer oxygenated solution at 32° C., and in Krebs carboxygenated solution medicated with pilocarpine, at 37° C.
(§2) After 30' minute stabilization the samples were stimulated with a single submaximal concentration of isopropylnoradrenaline (INA) (10^-8 M for the atria and 10^-7 M for the trachea) in the absence or presence of different antagonist's concentrations.
(§3) The percent inhibitions of the chronotropic and positive inotropic effect (atria) and of relaxation (trachea) were evaluated and the IC50 values were calculated therefrom.

A further data set is described as follows: in vivo. The following applies: mouse, iv. The procedure: Charles River male CD1 mice, weighing 25 g were used. The administration volume of the compounds, solubilized in H2 O and exceptionally in dimethylsulfoxide, was 0.02 ml/10 g of body weight.
The next data set deals with β2 (guinea pig trachea) (Cavia porcellus, UniProt Q8K4Z4). Kind of data set: cell-based. Further details: species or system guinea pig (Hartley albino). The procedure:
as §1, §2, §3

The subject of another data set is β1. The experiment in a line: β-blocking activity on conscious rats, i.v. (inhibition of INA positive chronotropic effect). Format: in vivo, rat (male Wistar). The following applies: 2 rats each compound. The text has this: The arterial pressure (AP) and heart rate (HR) were graphically recorded on a type R. multichannel Beckman poligraph.
For a further data set, the system named is β2 receptors. Kind of data set: Inhibition of 3H-DHA (dihydroalprenolol) binding to β2 receptors. The following applies: for affinity for the β2 receptors compared with β1 receptors: 3H-DHA binding, in words; for IC50: read-out: IC50 β2 (inhibition of H^3-DHA binding), [3H]dihydroalprenolol binding, β2.
The next data set concerns β1 receptors. The experiment in a line: Inhibition of 3H-DHA (dihydroalprenolol) binding to β1 receptors. The settings on record: for cardioselectivity degree compared with reference compounds: 3H-DHA binding, in words; for IC50: read-out: IC50 β1 (inhibition of H^3-DHA binding), [3H]dihydroalprenolol binding, β1.
Where [1] appears, read: β-Blocking activity in vitro IC50, Atria chronotropism × 10^-7, guinea pig atria, β1, chronotropic effect.
[2] abbreviates: β-Blocking activity in vitro IC50, Atria inotropism × 10^-7, guinea pig atria, β1, positive inotropic effect.
[3] abbreviates: read-out: β-Blocking activity in vitro IC50, Trachea β2 × 10^-7.
Setting [4] is: guinea pig atria, β1, chronotropic effect, read-out: β-Blocking activity in vitro IC50, Atria chronotropism × 10^-7.
[5] abbreviates: guinea pig atria, β1, positive inotropic effect, read-out: β-Blocking activity in vitro IC50, Atria inotropism × 10^-7.
[6] abbreviates: guinea pig trachea, β2, relaxation, INA 10^-7 M, 37° C., pilocarpine, read-out: β-Blocking activity in vitro IC50, Trachea β2 × 10^-7.
Where [7] appears, read: 1 mg/kg i.v., could be undervalued by reflex tachycardia.
The mark [8] stands for this setting: 3 mg/kg i.v. (Ia-c), could be undervalued by reflex tachycardia.

Sequence of β2 (guinea pig trachea) (Q8K4Z4 whole entry): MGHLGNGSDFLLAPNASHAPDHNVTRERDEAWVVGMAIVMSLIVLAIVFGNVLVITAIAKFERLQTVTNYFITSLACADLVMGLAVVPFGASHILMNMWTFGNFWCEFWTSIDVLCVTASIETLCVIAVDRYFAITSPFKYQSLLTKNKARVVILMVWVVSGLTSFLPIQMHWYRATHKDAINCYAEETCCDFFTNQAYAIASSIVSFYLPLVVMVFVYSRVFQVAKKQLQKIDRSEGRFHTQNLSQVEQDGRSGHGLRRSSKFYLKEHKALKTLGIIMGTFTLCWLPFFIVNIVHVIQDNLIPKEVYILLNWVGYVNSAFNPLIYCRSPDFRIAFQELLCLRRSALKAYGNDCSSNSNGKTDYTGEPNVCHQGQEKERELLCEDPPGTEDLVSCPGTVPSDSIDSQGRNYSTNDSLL
T1 sequence (H0W3H1 1-470): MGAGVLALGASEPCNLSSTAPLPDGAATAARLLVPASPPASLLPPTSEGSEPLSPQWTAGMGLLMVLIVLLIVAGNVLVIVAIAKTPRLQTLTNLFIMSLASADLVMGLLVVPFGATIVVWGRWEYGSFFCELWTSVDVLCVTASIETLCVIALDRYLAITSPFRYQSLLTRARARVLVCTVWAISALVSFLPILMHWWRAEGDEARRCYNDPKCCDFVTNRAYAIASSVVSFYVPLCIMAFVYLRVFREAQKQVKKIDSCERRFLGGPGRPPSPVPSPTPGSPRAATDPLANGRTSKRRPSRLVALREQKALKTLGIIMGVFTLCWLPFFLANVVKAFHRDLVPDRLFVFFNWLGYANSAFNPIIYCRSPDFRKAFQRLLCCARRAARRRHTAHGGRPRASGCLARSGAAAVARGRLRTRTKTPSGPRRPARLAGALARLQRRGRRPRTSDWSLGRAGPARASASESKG

`CC(C)NCC(O)COc1ccc(CC(N)=O)cc1` (stereo not shown) [Atenolol, atenolol, reference compound]: the IC50 against β1 (guinea pig atria) (setting [1]) is 1500 nM; against β1 (guinea pig atria) (setting [2]) it was 1700 nM.

In turn, `COc1ccc(N2CC(=O)N(CCNCC(O)COc3ccccc3C#N)C2=O)cc1.Cl` (stereo not shown) [Il, 1-(4-Methoxyphenyl)-3-{2-[3-(2-cyanophenoxy)-2-hydroxypropyl]aminoethyl}hydantoin hydrochloride] had a 50% lethal dose (LD50) at 168 h in the data set “in vivo” of 135 mg/kg. Also, the IC50 at β2 (guinea pig trachea) (setting [3]) was 360 nM; on β1 (guinea pig atria) (setting [4]) it was 45 nM; on β1 (guinea pig atria) (setting [5]), 96 nM.

The compound `N#Cc1ccccc1OCC(O)CNCCN1C(=O)CN(c2ccc(Cl)cc2)C1=O` (stereo not shown) [If] came in with an LD50 at 168 h in the data set “in vivo” of 70 mg/kg. The values for the IC50 on β2 (guinea pig trachea) (setting [6]), at β1 (guinea pig atria) (setting [4]) and at β1 (guinea pig atria) (setting [5]) were 6000 nM, 210 nM and 270 nM, respectively. Moreover, the “Vivo inhib. %, conscious rat i.v., chronotropism β1” value (“Vivo inhib. %” below) in the data set on β1 (setting [7]) came out at 68%.

For the compound `N#Cc1ccccc1OCC(O)CNCCN1C(=O)CN(c2ccccc2)C1=O` (stereo not shown) [Ic], the “affinity for the β2 receptors compared with β1 receptors” value in the data set with β2 receptors is “remarkably lower than the one shown for β1 receptors”. The IC50 at β2 receptors was 9300 nM; at β1 receptors it was 6.7 nM; on β2 (guinea pig trachea) (setting [6]) it was 2000 nM; at β1 (guinea pig atria) (setting [4]), 120 nM; at β1 (guinea pig atria) (setting [5]) it was 90 nM. In “in vivo”, this compound came in with an LD50 at 168 h of 99 mg/kg. The “cardioselectivity degree compared with reference compounds” value in the data set on β1 receptors is recorded as “remarkably higher cardioselectivity degree than that of the reference compounds”. Further, in the data set with β1 (setting [8]), the “Vivo inhib. %” value is 67%.

In “in vivo”, `O=C1CN(c2ccc(Cl)cc2)C(=O)N1CCNCC(O)COc1ccccc1` (stereo not shown) [Id] registered a 50% lethal dose (LD50) at 168 h of 45 mg/kg. In addition, the IC50 on β2 (guinea pig trachea) (setting [6]) was greater than 10000 nM; at β1 (guinea pig atria) (setting [4]), 770 nM; at β1 (guinea pig atria) (setting [5]) it was 1200 nM. Moreover, the “Vivo inhib. %” value in the data set with β1 (setting [7]) stood at 18%.

In the data set “in vivo”, `COc1ccc(N2CC(=O)N(CCNCC(O)COc3cccc(C)c3)C2=O)cc1OC` (stereo not shown) [Ih] returned a median lethal dose (LD50) at 168 h of 111 mg/kg. Also, the IC50 at β2 (guinea pig trachea) (setting [6]) came out at 1100 nM; at β1 (guinea pig atria) (setting [4]), 460 nM; at β1 (guinea pig atria) (setting [5]), 890 nM. The “Vivo inhib. %” value in the data set on β1 (setting [7]) is recorded as 58%.

`O=C1CN(c2ccccc2)C(=O)N1CCNCC(O)COc1ccccc1` (stereo not shown) [Ia, 1-Phenyl-3-{[2-(3-phenoxy-2-hydroxy)propylamino]ethyl}hydantoin hydrochloride]: in the data set “in vivo”, the median lethal dose (LD50) at 168 h amounted to 96 mg/kg. Besides, the figures for the IC50 at β2 (guinea pig trachea) (setting [6]), on β1 (guinea pig atria) (setting [4]) and on β1 (guinea pig atria) (setting [5]) were 6700 nM, 140 nM and 430 nM, respectively. The “Vivo inhib. %” value with β1 (setting [8]) was 59%.

On to `COCCc1ccc(OCC(O)CNC(C)C)cc1` (stereo not shown) [Metoprolol, metoprolol, reference compound], for which, in “in vivo”, the LD50 at 168 h worked out at 103 mg/kg. Besides, in the data set with β1 (setting [7]), the “Vivo inhib. %” value is on record as 60%.

`O=C1CN(c2ccccc2)C(=O)N1CCNCC(O)COc1ccccc1Cl` (stereo not shown) [Ip] had an LD50 at 168 h in the data set “in vivo” of 80 mg/kg. Also, the IC50 at β2 (guinea pig trachea) (setting [6]) was determined as 600 nM; on β1 (guinea pig atria) (setting [4]), 54 nM; at β1 (guinea pig atria) (setting [5]), 115 nM.

`COc1ccc(N2CC(=O)N(CCNCC(O)COc3ccccc3)C2=O)cc1OC` (stereo not shown) [Ig] displayed an LD50 at 168 h in “in vivo” of 126 mg/kg. For the same compound, the results for the IC50 at β2 (guinea pig trachea) (setting [6]), on β1 (guinea pig atria) (setting [4]) and at β1 (guinea pig atria) (setting [5]) were 1500 nM, 230 nM and 210 nM, respectively. Further, the “Vivo inhib. %” value in the data set with β1 (setting [7]) came out at 53%.

Consider `N#Cc1ccccc1OC[C@H](O)CNCCN1C(=O)CN(c2ccccc2)C1=O` [Ic(R), (R)-(+)-1-Phenyl-3-{2-[3-(2-cyanophenoxy)-2-hydroxypropyl]aminoethyl}hydantoin hydrochloride], for which the half-maximal inhibitory concentration (IC50) at β2 (guinea pig trachea) (setting [3]) is greater than 100000 nM; on β1 (guinea pig atria) (setting [4]) it was 1400 nM; at β1 (guinea pig atria) (setting [5]), 3400 nM.

Compound `COc1cccc(N2CC(=O)N(CCNCC(O)COc3ccccc3C#N)C2=O)c1` (stereo not shown) [In, 1-(3-Methoxyphenyl)-3-{2-[3-(2-cyanophenoxy)-2-hydroxypropyl]-aminoethyl}hydantoin hydrochloride] showed an LD50 at 168 h in the data set “in vivo” of 120 mg/kg. The values for the concentration for half-maximal inhibition (IC50) at β2 (guinea pig trachea) (setting [6]), on β1 (guinea pig atria) (setting [4]) and at β1 (guinea pig atria) (setting [5]) were 640 nM, 76 nM and 130 nM, respectively.

`Cc1ccccc1OCC(O)CNCCN1C(=O)CN(c2ccccc2)C1=O` (stereo not shown) [Io]: in the data set “in vivo”, the LD50 at 168 h was found to be 60 mg/kg. In addition, the IC50 on β2 (guinea pig trachea) (setting [6]) was found to be 1600 nM; on β1 (guinea pig atria) (setting [4]), 115 nM; at β1 (guinea pig atria) (setting [5]), 150 nM.

Take `Cl.N#Cc1ccccc1OCC(O)CNCCN1C(=O)CN(c2ccc3c(c2)OCO3)C1=O` (stereo not shown) [Im, 1-(3,4-Methylendioxyphenyl)-3-{2-[3-(2-cyanophenoxy)-2-hydroxypropyl]aminoethyl}hydantoin hydrochloride]: the LD50 at 168 h in “in vivo” worked out at 132 mg/kg. The results for the IC50 at β2 (guinea pig trachea) (setting [3]), at β1 (guinea pig atria) (setting [4]) and at β1 (guinea pig atria) (setting [5]) were 780 nM, 41 nM and 63 nM, respectively.

With `Cc1cccc(OCC(O)CNCCN2C(=O)CN(c3ccc(Cl)cc3)C2=O)c1` (stereo not shown) [Ie], in the data set “in vivo”, the median lethal dose (LD50) at 168 h worked out at 25 mg/kg. Also, the IC50 at β2 (guinea pig trachea) (setting [6]), at β1 (guinea pig atria) (setting [4]) and at β1 (guinea pig atria) (setting [5]) was greater than 10000 nM each time. For the same compound, the “Vivo inhib. %” value with β1 (setting [7]) is on record as 19%.

On to `N#Cc1ccccc1OC[C@@H](O)CNCCN1C(=O)CN(c2ccccc2)C1=O` [Ic(S), (S)-(-)-1-Phenyl-3-{2-[3-(2-cyanophenoxy)-2-hydroxypropyl]aminoethyl}hydantoin hydrochloride], for which the IC50 stood at 600 nM at β2 (guinea pig trachea) (setting [3]), 29 nM at β1 (guinea pig atria) (setting [4]) and 60 nM at β1 (guinea pig atria) (setting [5]).

`Cc1cccc(OCC(O)CNCCN2C(=O)CN(c3ccccc3)C2=O)c1` (stereo not shown) [Ib]: the LD50 at 168 h in “in vivo” stood at 69 mg/kg. Further, the IC50 on β2 (guinea pig trachea) (setting [6]) came out at 6200 nM; at β1 (guinea pig atria) (setting [4]), 430 nM; on β1 (guinea pig atria) (setting [5]), 940 nM. In addition, in the data set with β1 (setting [8]), the “Vivo inhib. %” value turned out to be 50%.

Consider `CC(C)NCC(O)COc1cccc2ccccc12` (stereo not shown) [Propranolol, propranolol, reference compound], for which the “Vivo inhib. %” value in the data set with β1 (0.1 mg/kg i.v. (propranolol)) is listed as 73%.

With `CC(CCc1ccccc1)NCC(O)c1ccc(O)c(C(N)=O)c1` (stereo not shown) [Labetalol, labetalol, reference compound], the 50% inhibitory concentration (IC50) was determined as 1100 nM at β2 (guinea pig trachea), 240 nM at β1 (guinea pig atria) (setting [1]) and 210 nM at β1 (guinea pig atria) (setting [2]). For the same compound, the “Vivo inhib. %” value in the data set on β1 (setting [7]) was determined as 82%.

Take `COc1ccc(N2CC(=O)N(CCNCC(O)COc3ccccc3C#N)C2=O)cc1OC` (stereo not shown) [Ii]: the “affinity for the β2 receptors compared with β1 receptors” value in the data set with β2 receptors is on record as “remarkably lower than the one shown for β1 receptors”. Moreover, the IC50 amounted to 400 nM on β2 receptors; 9.2 nM on β1 receptors; 430 nM on β2 (guinea pig trachea) (setting [6]); 82 nM on β1 (guinea pig atria) (setting [4]); 190 nM at β1 (guinea pig atria) (setting [5]). Further, the LD50 at 168 h in “in vivo” is 137 mg/kg. Also, in the data set on β1 receptors, the “cardioselectivity degree compared with reference compounds” value is “remarkably higher cardioselectivity degree than that of the reference compounds”. The “Vivo inhib. %” value with β1 (setting [7]) is 70%.
